Values joined by “and” are separate entries in the source; they are usually repeats but may differ in a detail not shown here. Equal values may be shown once. ± gives the uncertainty stated by the source.
Assay: xn = mol fraction of the nth substance listed

`CCCCOCCO` + O gave a viscosity (293.15 K, 101 kPa, x1 = 0.00631) of 1.166 ± 0.015 mPa·s, a viscosity (293.15 K, 101 kPa, x1 = 0.0131) of 1.391 ± 0.015 mPa·s and a viscosity (293.15 K, 101 kPa, x1 = 0.01666) of 1.507 ± 0.016 mPa·s. The viscosity (293.15 K, 101 kPa, x1 = 0.03452) was 2.102 ± 0.025 mPa·s, the viscosity (294.15 K, 101 kPa, x1 = 0.00631) was 1.136 ± 0.012 mPa·s and the viscosity (294.15 K, 101 kPa, x1 = 0.0131) was 1.352 ± 0.014 mPa·s. It also gave a viscosity (295.15 K, 101 kPa, x1 = 0.00631) of 1.106 ± 0.012 mPa·s, a viscosity (295.15 K, 101 kPa, x1 = 0.0131) of 1.315 ± 0.014 mPa·s and a viscosity (295.15 K, 101 kPa, x1 = 0.01666) of 1.421 ± 0.015 mPa·s. It also gave a viscosity (295.15 K, 101 kPa, x1 = 0.03452) of 1.979 ± 0.021 mPa·s, a viscosity (296.15 K, 101 kPa, x1 = 0.00631) of 1.079 ± 0.011 mPa·s and a viscosity (296.15 K, 101 kPa, x1 = 0.0131) of 1.279 ± 0.013 mPa·s. The viscosity (297.15 K, 101 kPa, x1 = 0.00631) was 1.052 ± 0.011 mPa·s, the viscosity (297.15 K, 101 kPa, x1 = 0.0131) was 1.245 ± 0.013 mPa·s and the viscosity (297.15 K, 101 kPa, x1 = 0.01666) was 1.342 ± 0.014 mPa·s. For the same compound, the viscosity (297.15 K, 101 kPa, x1 = 0.03452) was 1.868 ± 0.019 mPa·s, the viscosity (298.15 K, 101 kPa, x1 = 0.00631) was 1.026 ± 0.011 mPa·s and the viscosity (298.15 K, 101 kPa, x1 = 0.0131) was 1.212 ± 0.013 mPa·s. For the same compound, the viscosity (299.15 K, 101 kPa, x1 = 0.00631) was 1.001 ± 0.01 mPa·s, the viscosity (299.15 K, 101 kPa, x1 = 0.0131) was 1.18 ± 0.012 mPa·s and the viscosity (299.15 K, 101 kPa, x1 = 0.01666) was 1.271 ± 0.013 mPa·s. The viscosity (299.15 K, 101 kPa, x1 = 0.03452) was 1.766 ± 0.018 mPa·s, the viscosity (300.15 K, 101 kPa, x1 = 0.00631) was 0.9782 ± 0.01 mPa·s and the viscosity (300.15 K, 101 kPa, x1 = 0.0131) was 1.15 ± 0.012 mPa·s. The viscosity (301.15 K, 101 kPa, x1 = 0.00631) was 0.9547 ± 0.01 mPa·s, the viscosity (301.15 K, 101 kPa, x1 = 0.0131) was 1.121 ± 0.012 mPa·s and the viscosity (301.15 K, 101 kPa, x1 = 0.01666) was 1.205 ± 0.013 mPa·s. For the same compound, the viscosity (301.15 K, 101 kPa, x1 = 0.03452) was 1.675 ± 0.017 mPa·s, the viscosity (302.15 K, 101 kPa, x1 = 0.00631) was 0.9328 ± 0.0098 mPa·s and the viscosity (302.15 K, 101 kPa, x1 = 0.0131) was 1.092 ± 0.011 mPa·s. For the same compound, the viscosity (303.15 K, 101 kPa, x1 = 0.00631) was 0.9113 ± 0.0095 mPa·s, the viscosity (303.15 K, 101 kPa, x1 = 0.0131) was 1.066 ± 0.011 mPa·s and the viscosity (303.15 K, 101 kPa, x1 = 0.01666) was 1.144 ± 0.012 mPa·s. It also gave a viscosity (303.15 K, 101 kPa, x1 = 0.03452) of 1.592 ± 0.016 mPa·s, a viscosity (304.15 K, 101 kPa, x1 = 0.00631) of 0.891 ± 0.0093 mPa·s and a viscosity (304.15 K, 101 kPa, x1 = 0.0131) of 1.04 ± 0.011 mPa·s. For the same compound, the viscosity (305.15 K, 101 kPa, x1 = 0.00631) was 0.8711 ± 0.0091 mPa·s, the viscosity (305.15 K, 101 kPa, x1 = 0.0131) was 1.015 ± 0.01 mPa·s and the viscosity (305.15 K, 101 kPa, x1 = 0.01666) was 1.089 ± 0.011 mPa·s. The viscosity (305.15 K, 101 kPa, x1 = 0.03452) was 1.515 ± 0.015 mPa·s, the viscosity (306.15 K, 101 kPa, x1 = 0.00631) was 0.8521 ± 0.0089 mPa·s and the viscosity (306.15 K, 101 kPa, x1 = 0.0131) was 0.9916 ± 0.01 mPa·s. The viscosity (307.15 K, 101 kPa, x1 = 0.00631) was 0.8342 ± 0.0087 mPa·s, the viscosity (307.15 K, 101 kPa, x1 = 0.0131) was 0.9686 ± 0.01 mPa·s and the viscosity (307.15 K, 101 kPa, x1 = 0.01666) was 1.038 ± 0.011 mPa·s. For the same compound, the viscosity (307.15 K, 101 kPa, x1 = 0.03452) was 1.445 ± 0.014 mPa·s, the viscosity (308.15 K, 101 kPa, x1 = 0.00631) was 0.8158 ± 0.0085 mPa·s and the viscosity (308.15 K, 101 kPa, x1 = 0.0131) was 0.9465 ± 0.0098 mPa·s. The viscosity (308.15 K, 101 kPa, x1 = 0.037) was 1.465 ± 0.017 mPa·s and 1.465 ± 0.038 mPa·s, the viscosity (308.15 K, 101.33 kPa, x2 = 0.3047) was 2.388 ± 0.11 mPa·s and the viscosity (308.15 K, 101.33 kPa, x2 = 0.4017) was 2.477 ± 0.11 mPa·s. It also gave a viscosity (308.15 K, 101.33 kPa, x2 = 0.4974) of 2.624 ± 0.12 mPa·s, a viscosity (308.15 K, 101.33 kPa, x2 = 0.5973) of 2.835 ± 0.13 mPa·s and a viscosity (308.15 K, 101.33 kPa, x2 = 0.697) of 2.955 ± 0.13 mPa·s. The viscosity (308.15 K, 101.33 kPa, x2 = 0.8047) was 2.873 ± 0.13 mPa·s, the viscosity (308.15 K, 101.33 kPa, x2 = 0.8972) was 2.245 ± 0.1 mPa·s and the viscosity (308.15 K, 101.33 kPa, x2 = 0.9497) was 1.576 ± 0.076 mPa·s. For the same compound, the viscosity (309.15 K, 101 kPa, x1 = 0.00631) was 0.799 ± 0.0083 mPa·s, the viscosity (309.15 K, 101 kPa, x1 = 0.0131) was 0.9251 ± 0.0096 mPa·s and the viscosity (309.15 K, 101 kPa, x1 = 0.01666) was 0.9913 ± 0.01 mPa·s. The viscosity (309.15 K, 101 kPa, x1 = 0.03452) was 1.381 ± 0.013 mPa·s, the viscosity (310.15 K, 101 kPa, x1 = 0.00631) was 0.7823 ± 0.0082 mPa·s and the viscosity (310.15 K, 101 kPa, x1 = 0.0131) was 0.9045 ± 0.0093 mPa·s. It also gave a viscosity (311.15 K, 101 kPa, x1 = 0.00631) of 0.7663 ± 0.008 mPa·s, a viscosity (311.15 K, 101 kPa, x1 = 0.0131) of 0.8847 ± 0.0091 mPa·s and a viscosity (311.15 K, 101 kPa, x1 = 0.01666) of 0.9476 ± 0.0097 mPa·s. It also gave a viscosity (311.15 K, 101 kPa, x1 = 0.03452) of 1.322 ± 0.013 mPa·s, a viscosity (312.15 K, 101 kPa, x1 = 0.00631) of 0.7507 ± 0.0078 mPa·s and a viscosity (312.15 K, 101 kPa, x1 = 0.0131) of 0.8657 ± 0.0089 mPa·s. It also gave a viscosity (313.15 K, 101 kPa, x1 = 0.00631) of 0.7357 ± 0.0077 mPa·s, a viscosity (313.15 K, 101 kPa, x1 = 0.0131) of 0.8474 ± 0.0087 mPa·s and a viscosity (313.15 K, 101 kPa, x1 = 0.01666) of 0.907 ± 0.0092 mPa·s. For the same compound, the viscosity (313.15 K, 101 kPa, x1 = 0.03452) was 1.268 ± 0.012 mPa·s, the viscosity (313.15 K, 101 kPa, x1 = 0.6) was 2.465 ± 0.026 mPa·s and the viscosity (314.15 K, 101 kPa, x1 = 0.00631) was 0.7211 ± 0.0075 mPa·s. The viscosity (314.15 K, 101 kPa, x1 = 0.0131) was 0.8294 ± 0.0085 mPa·s, the viscosity (315.15 K, 101 kPa, x1 = 0.00631) was 0.7073 ± 0.0074 mPa·s and the viscosity (315.15 K, 101 kPa, x1 = 0.0131) was 0.8121 ± 0.0083 mPa·s. It also gave a viscosity (315.15 K, 101 kPa, x1 = 0.01666) of 0.8696 ± 0.0089 mPa·s, a viscosity (315.15 K, 101 kPa, x1 = 0.03452) of 1.218 ± 0.012 mPa·s and a viscosity (316.15 K, 101 kPa, x1 = 0.00631) of 0.6935 ± 0.0073 mPa·s. The viscosity (316.15 K, 101 kPa, x1 = 0.0131) was 0.7957 ± 0.0082 mPa·s, the viscosity (317.15 K, 101 kPa, x1 = 0.00631) was 0.6799 ± 0.0071 mPa·s and the viscosity (317.15 K, 101 kPa, x1 = 0.0131) was 0.7795 ± 0.008 mPa·s. For the same compound, the viscosity (317.15 K, 101 kPa, x1 = 0.01666) was 0.8346 ± 0.0085 mPa·s, the viscosity (317.15 K, 101 kPa, x1 = 0.03452) was 1.173 ± 0.011 mPa·s and the viscosity (318.15 K, 101 kPa, x1 = 0.00631) was 0.6676 ± 0.007 mPa·s. For the same compound, the viscosity (318.15 K, 101 kPa, x1 = 0.0131) was 0.764 ± 0.0079 mPa·s, the viscosity (318.15 K, 101 kPa, x1 = 0.03452) was 1.151 ± 0.011 mPa·s and the viscosity (319.15 K, 101 kPa, x1 = 0.00631) was 0.6552 ± 0.0069 mPa·s. For the same compound, the viscosity (319.15 K, 101 kPa, x1 = 0.0131) was 0.7487 ± 0.0077 mPa·s, the viscosity (319.15 K, 101 kPa, x1 = 0.01666) was 0.8021 ± 0.0082 mPa·s and the viscosity (319.15 K, 101 kPa, x1 = 0.03452) was 1.131 ± 0.011 mPa·s. For the same compound, the viscosity (320.15 K, 101 kPa, x1 = 0.00631) was 0.6431 ± 0.0067 mPa·s, the viscosity (320.15 K, 101 kPa, x1 = 0.0131) was 0.7347 ± 0.0076 mPa·s and the viscosity (320.15 K, 101 kPa, x1 = 0.03452) was 1.113 ± 0.01 mPa·s. The viscosity (320.65 K, 101 kPa, x1 = 0.03452) was 1.104 ± 0.0099 mPa·s, the viscosity (321.15 K, 101 kPa, x1 = 0.00631) was 0.6313 ± 0.0066 mPa·s and the viscosity (321.15 K, 101 kPa, x1 = 0.0131) was 0.7202 ± 0.0074 mPa·s. The viscosity (321.15 K, 101 kPa, x1 = 0.01666) was 0.7716 ± 0.0078 mPa·s, the viscosity (321.15 K, 101 kPa, x1 = 0.03452) was 1.096 ± 0.01 mPa·s and the viscosity (321.65 K, 101 kPa, x1 = 0.03452) was 1.088 ± 0.014 mPa·s. It also gave a viscosity (322.15 K, 101 kPa, x1 = 0.00631) of 0.6205 ± 0.0065 mPa·s, a viscosity (322.15 K, 101 kPa, x1 = 0.0131) of 0.7065 ± 0.0073 mPa·s and a viscosity (323.15 K, 101 kPa, x1 = 0.00631) of 0.6094 ± 0.0061 mPa·s. The viscosity (323.15 K, 101 kPa, x1 = 0.0131) was 0.6934 ± 0.0069 mPa·s and the viscosity (323.15 K, 101 kPa, x1 = 0.01666) was 0.743 ± 0.0076 mPa·s.
